Measurements from patent publication US20240199624A1, “COMPOUNDS, COMPOSITIONS, AND METHODS” (CHDI Foundation, Inc., priority 2022, published 2024).

Columns and labels:
human MutSbeta [1] = biological target: T1, human MutSbeta (Homo sapiens, UniProt P20585+P43246); assay: P33 SPA 1.1; format: biochemical; conditions: Table 5A; enzyme first added to compounds, then ATP
T1 construct: Msh2(1-934), Gene ID NP_000242.1; Msh3(1-1137), Gene ID J04810.1
Description: (§1) P33 SPA: Enzyme human MutSbeta (Msh2(1-934), Gene ID NP_000242.1, Msh3(1-1137), Gene ID J04810.1) and 22 bp biotin-labeled DNA containing a GT-mismatch (purchased from Curia Global, TOP 5′-[…]-3′; BOT 3′-AGTAGCTAGGC - - - CGAAGTCTACC-5′-Biotin) were pre-incubated at equimolar concentration for 15 min at room temperature (“RT”) in assay buffer (25 mM HEPES pH=7.5, 150 mM KCl, 2 mM MgCl2, 2 mM GSH, 0.01% Tween-20). ATP (10 μL, 2× final concentration of γ-[^33P]-ATP (final 0.1 nM; Hartmann Analytic, FF-301) and cold ATP (final 2 μM)) was added to compounds (400 nL spotted as concentration response in 100% DMSO into wells of an OptiPlate) and pre-incubated for 30 min at RT. Then, enzyme with DNA was added (10 μL, 2× final concentration of 7 nM) and incubated for 60 min at 37° C. in a total volume of 20 μL per well. Decay of [^33P] with a half-life of 25.4 days was corrected by increasing the concentration of the labelled nucleotide with the appropriate factor; all steps with radioactive ATP were conducted behind appropriate shielding. Then, 20 μL of a 1:2 mix of ammonium molybdate (20 mg/mL Ammonium molybdate in 2.4 M HCl) and SPA beads (ProteinA SPA beads from Perkin Elmer Cat #RPNQ0019 at 7.5 mg/mL+1% azide) was added per well and incubated at RT for 2 min. Then, 40 μL of 7 M CsCl and 0.1 M citrate was added per well and incubated for 20 h at RT before measuring on the MicroBeta (top read mode, 1 min per well). For full plate processing, all reagents were transferred with a pipettor (Selma, CyBio) apart from the final reagent (CsCl+citrate) which was added with a dispenser (MultiFlo, BioTek). Data analysis during assay development was done with Prism GraphPad.
P33 SPA 11: For the SPA 1.1 assay, the addition of reagents was reversed, i.e. enzyme was first added to the compounds and pre-incubated followed by ATP addition; thus, the assay was aligned with ADP Glo 1.1 reagent addition order. The assay was repeated under similar conditions, and the results are shown below in Table 5B. It is contemplated the solubility of the compounds and/or varying test occasions may account for variability of assay results.

human MutSbeta [2] = biological target: T1, human MutSbeta; assay: P33 SPA; format: biochemical; conditions: ATP added to compounds first, then enzyme with DNA; 2 μM ATP, 7 nM enzyme, 60 min 37° C.
Description: as §1

human MutSα = biological target: T2, human MutSα (Homo sapiens, UniProt P43246+P52701); assay: ADP Glo assay with MutSα (2.1); format: biochemical; conditions: 15 nM MutSα/DNA, 30 μM ATP
T2 construct: Msh2(1-934), Gene ID NP_000242.1; Msh6(1-1360), Gene ID NP_001393725.1
T2 sequence (P43246 whole entry): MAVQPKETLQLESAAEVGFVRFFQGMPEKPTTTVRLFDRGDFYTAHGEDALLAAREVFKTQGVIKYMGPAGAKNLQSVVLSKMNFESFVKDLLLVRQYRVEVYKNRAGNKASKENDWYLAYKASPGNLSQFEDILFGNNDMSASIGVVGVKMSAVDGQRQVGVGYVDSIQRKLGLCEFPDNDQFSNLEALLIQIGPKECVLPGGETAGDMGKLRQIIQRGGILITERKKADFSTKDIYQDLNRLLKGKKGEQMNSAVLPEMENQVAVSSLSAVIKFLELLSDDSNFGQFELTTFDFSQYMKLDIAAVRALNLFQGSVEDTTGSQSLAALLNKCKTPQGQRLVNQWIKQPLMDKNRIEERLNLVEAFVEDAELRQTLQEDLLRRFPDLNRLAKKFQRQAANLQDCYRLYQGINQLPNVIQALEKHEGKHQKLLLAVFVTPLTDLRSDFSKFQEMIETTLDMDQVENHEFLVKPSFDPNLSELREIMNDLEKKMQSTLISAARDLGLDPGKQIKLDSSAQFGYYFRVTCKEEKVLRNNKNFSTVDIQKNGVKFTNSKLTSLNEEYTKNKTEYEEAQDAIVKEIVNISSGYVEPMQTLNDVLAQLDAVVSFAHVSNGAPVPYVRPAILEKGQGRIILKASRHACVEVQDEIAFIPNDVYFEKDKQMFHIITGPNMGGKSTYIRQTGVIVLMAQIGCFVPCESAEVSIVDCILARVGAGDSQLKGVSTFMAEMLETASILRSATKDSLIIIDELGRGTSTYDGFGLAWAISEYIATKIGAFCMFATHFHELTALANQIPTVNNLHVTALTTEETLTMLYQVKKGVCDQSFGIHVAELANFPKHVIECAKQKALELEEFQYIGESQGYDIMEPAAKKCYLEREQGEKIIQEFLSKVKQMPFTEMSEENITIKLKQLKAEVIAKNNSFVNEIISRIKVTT
T2 sequence (P52701 whole entry): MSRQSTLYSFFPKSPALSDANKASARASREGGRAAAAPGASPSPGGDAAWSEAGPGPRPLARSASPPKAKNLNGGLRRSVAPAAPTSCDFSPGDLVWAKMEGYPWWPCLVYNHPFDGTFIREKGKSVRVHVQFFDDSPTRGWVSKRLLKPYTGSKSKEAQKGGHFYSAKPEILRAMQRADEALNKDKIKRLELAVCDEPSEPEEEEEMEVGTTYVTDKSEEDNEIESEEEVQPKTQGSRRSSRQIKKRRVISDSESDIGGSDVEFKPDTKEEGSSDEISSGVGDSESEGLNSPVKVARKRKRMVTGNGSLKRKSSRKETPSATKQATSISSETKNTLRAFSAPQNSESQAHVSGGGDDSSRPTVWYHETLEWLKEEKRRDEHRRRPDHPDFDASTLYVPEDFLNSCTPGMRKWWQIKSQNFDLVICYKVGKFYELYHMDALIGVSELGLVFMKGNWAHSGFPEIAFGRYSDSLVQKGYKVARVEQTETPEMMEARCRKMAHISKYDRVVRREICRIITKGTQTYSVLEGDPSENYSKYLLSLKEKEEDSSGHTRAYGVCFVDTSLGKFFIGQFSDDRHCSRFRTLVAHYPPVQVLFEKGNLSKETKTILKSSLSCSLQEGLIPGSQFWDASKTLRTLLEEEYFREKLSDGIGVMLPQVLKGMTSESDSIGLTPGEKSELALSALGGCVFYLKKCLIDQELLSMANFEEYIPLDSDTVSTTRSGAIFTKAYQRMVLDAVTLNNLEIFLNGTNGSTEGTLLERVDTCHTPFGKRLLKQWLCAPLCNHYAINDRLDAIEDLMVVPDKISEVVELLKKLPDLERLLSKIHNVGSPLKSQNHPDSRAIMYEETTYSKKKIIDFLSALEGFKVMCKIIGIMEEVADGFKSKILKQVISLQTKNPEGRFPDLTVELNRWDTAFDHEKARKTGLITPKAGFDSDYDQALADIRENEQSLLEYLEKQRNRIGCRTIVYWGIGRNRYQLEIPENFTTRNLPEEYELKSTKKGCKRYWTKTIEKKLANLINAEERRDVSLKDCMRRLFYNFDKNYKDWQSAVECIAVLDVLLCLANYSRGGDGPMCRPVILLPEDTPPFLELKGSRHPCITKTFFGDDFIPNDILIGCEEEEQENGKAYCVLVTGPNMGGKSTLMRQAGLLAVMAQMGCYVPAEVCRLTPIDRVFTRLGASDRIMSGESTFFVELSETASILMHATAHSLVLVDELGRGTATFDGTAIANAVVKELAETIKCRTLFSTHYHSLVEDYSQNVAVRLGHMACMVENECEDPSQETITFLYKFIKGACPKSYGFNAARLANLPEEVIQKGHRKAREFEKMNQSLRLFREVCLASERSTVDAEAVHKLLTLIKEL
Description: (§2) ADP Glo assay 2.1: Enzyme human MutSbeta (Msh2(1-934), Gene ID NP_000242.1, Msh3(1-1137), Gene ID J04810.1) with 22 bp biotin-labeled DNA containing a GT-mismatch (purchased from Curia Global, TOP 5′-[…]-3′; BOT 3′-AGTAGCTAGGC - - - CGAAGTCTACC-5′-Biotin) was pre-incubated in assay buffer (25 mM HEPES pH=7.5, 150 mM KCl, 5 mM MgCl2, 5 mM GSH, 0.1% Pluronic F-127, 0.2% Ovalbumin) to allow formation of the enzyme-DNA complex. Plates with spotted compounds in serial dilutions in DMSO (80 nL) were filled with ATP (2 μL, 10 μM final concentration) followed by an incubation of 30 min at RT. Then, enzyme was added (2 μL, 7 nM final concentration) and the reaction was allowed to proceed for 60 min at 37° C. After the ATPase reaction, the commercially available “ADP-Glo Reagent” was added (incubate 40 min at RT) to deplete remaining ATP via the activity of […]. Subsequently, the commercially available “Kinase Detection Reagent” converted ADP to ATP via the activity of PEP and Pyruvate kinase. The ATP was then converted into light by Ultra-Glo Luciferase. The obtained luminescence was proportional to the ADP concentration generated during the initial ATPase reaction. The luminescence signal was measured with an Envision reader, raw data were analyzed towards controls (full reaction=0% inhibition; no reaction in absence of enzyme=100% inhibition) and IC50 curves were analyzed with the inhouse software Aplus.
ADP Glo assay with MutSα (2.1): The ADP Glo assay version 2.1 with the enzyme human MutSα (Msh2(1-934), Gene ID NP_000242.1, Msh6(1-1360), Gene ID NP_001393725.1) was based on the same principle and protocol steps as the MutSβ assay. A 22 bp biotin-labeled DNA containing a GT-mismatch (purchased from Curia Global, TOP 5′-[…]-3′; BOT 3′-AGTAGCTAGGC - - - CGAAGTCTACC-5′-Biotin) was used for binding to MutSα. For this assay, concentrations of enzyme and ATP were optimized to 15 nM MutSα/DNA and 30 μM ATP.

human MutSbeta [3] = biological target: T1, human MutSbeta; assay: ADP Glo assay 2.1; format: biochemical; conditions: 10 μM ATP, 7 nM enzyme; buffer with 5 mM GSH, 0.2% Ovalbumin
Description: as §2

human MutSbeta [4] = biological target: T1, human MutSbeta; assay: ADP Glo assay 1.1; format: biochemical; conditions: SPA buffer, no Ovalbumin; enzyme added to compounds before ATP; read-out: ADP Gol 1.1 assay IC50
Description: as §2
ADP Glo assay 1.1: The ADP Glo 2.1 assay was adapted to enable assessment of a more direct interaction of the compound with the enzyme: (1) the SPA buffer was applied (25 mM HEPES pH=7.5, 150 mM KCl, 2 mM MgCl2, 2 mM GSH, 0.01% Tween-20) which contained no decoy Ovalbumin protein. (2) The order of reagent addition was changed, and enzyme was now added directly to the spotted compounds before addition of ATP.

[5] = P33 SPA counter assay (absence of enzyme); conditions: interference with detection system
Description: P33 SPA counter assay: This assay was used in the absence of enzyme to determine whether the test compound interferes with the detection system. Otherwise, the same protocol and assay buffer as in the main SPA assay were applied (25 mM HEPES pH=7.5, 150 mM KCl, 2 mM MgCl2, 2 mM GSH, 0.01% Tween-20) and instead of enzyme addition, assay buffer was added. Hydrolysis of substrate (γ-[^33P]-ATP, 0.1 nM; Hartmann Analytic, FF-301; and cold ATP, 10 μM) to a similar level as under enzymatic conditions was achieved by incubation at 50° C. for 4 days. Decay of [^33P] with a half-life of 25.4 days was corrected by increasing the concentration of the labelled nucleotide with the appropriate factor; all steps with radioactive ATP were conducted behind appropriate shielding. After addition of pre-treated ATP substrate (10 μL) to the compounds and addition of buffer (10 μL, instead of enzyme), 20 μL of a 1:2 mix of ammonium molybdate (20 mg/mL Ammonium molybdate in 2.4M HCl) and SPA beads (ProteinA SPA beads from Perkin Elmer Cat #RPNQ0019 at 7.5 mg/mL+1% azide) was added per well and incubated at RT for 2 min. Then, 40 μL of 7 M CsCl and 0.1 M citrate was added per well and incubated for 1 h at room temperature before measuring on the MicroBeta (top read mode, 1 min per well). For full plate processing, all reagents were transferred with a pipettor (Selma, CyBio) apart from the final reagent (CsCl+citrate) which was added with a dispenser (MultiFlo, BioTek). Data analysis during assay development was done with Prism GraphPad, and IC50 fitting for whole compound plates was done with the in-house software Aplus.

T1 sequence (P43246 whole entry): as the sequence (P43246 whole entry) above
T1 sequence (P20585 whole entry): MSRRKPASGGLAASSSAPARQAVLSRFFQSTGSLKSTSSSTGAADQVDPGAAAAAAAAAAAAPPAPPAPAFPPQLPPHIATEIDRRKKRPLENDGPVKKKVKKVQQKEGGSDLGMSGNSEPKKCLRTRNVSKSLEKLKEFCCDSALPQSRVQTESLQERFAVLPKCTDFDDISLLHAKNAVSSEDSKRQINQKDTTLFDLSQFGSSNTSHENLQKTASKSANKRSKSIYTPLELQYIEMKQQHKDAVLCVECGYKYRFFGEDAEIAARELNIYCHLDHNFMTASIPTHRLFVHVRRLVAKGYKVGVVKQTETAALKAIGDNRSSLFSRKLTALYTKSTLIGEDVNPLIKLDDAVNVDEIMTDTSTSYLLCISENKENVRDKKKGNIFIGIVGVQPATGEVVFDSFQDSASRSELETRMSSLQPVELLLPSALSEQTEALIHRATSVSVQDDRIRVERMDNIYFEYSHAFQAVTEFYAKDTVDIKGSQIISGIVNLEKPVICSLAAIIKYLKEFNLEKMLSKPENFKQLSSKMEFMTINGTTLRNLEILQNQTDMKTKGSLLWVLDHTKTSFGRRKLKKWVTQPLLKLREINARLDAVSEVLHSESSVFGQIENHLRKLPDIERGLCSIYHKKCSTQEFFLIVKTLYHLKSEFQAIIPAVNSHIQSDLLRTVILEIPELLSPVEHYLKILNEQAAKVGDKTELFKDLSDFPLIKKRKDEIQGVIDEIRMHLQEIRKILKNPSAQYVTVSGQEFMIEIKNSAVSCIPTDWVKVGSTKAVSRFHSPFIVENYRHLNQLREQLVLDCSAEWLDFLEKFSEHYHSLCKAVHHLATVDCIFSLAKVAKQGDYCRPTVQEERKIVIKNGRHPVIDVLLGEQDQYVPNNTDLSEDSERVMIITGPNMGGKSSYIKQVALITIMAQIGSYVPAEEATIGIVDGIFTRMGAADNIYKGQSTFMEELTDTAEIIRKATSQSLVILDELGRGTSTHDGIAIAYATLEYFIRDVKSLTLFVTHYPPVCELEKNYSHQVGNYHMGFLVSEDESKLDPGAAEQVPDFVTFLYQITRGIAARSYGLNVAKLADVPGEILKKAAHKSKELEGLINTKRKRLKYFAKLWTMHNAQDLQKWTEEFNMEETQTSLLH

Row | Compound | IC50 (human MutSbeta [1]) | IC50 (human MutSbeta [2]) | IC50 (human MutSα) | IC50 (human MutSbeta [3]) | IC50 (human MutSbeta [4]) | IC50 [5]
1 | CCN1CCN(c2nc(Nc3ccc(F)c(C)c3)c3nccnc3n2)CC1 [Compound 3, 2-(4-ethylpiperazin-1-yl)-N-(4-fluoro-3-methyl-phenyl)pteridin-4-amine] | 24.5 µM | 20.8 µM | 42.3 µM | 32.6 µM | 42.5 µM | –
2 | CN1CCN(c2nc(NCc3ccccc3)c3nccnc3n2)CC1 [Compound 5, N-benzyl-2-(4-methylpiperazin-1-yl)pteridin-4-amine] | 44.8 µM | 31 µM | > 200 µM | 148 µM | 63.4 µM | > 200 µM
3 | Cc1cccc(Nc2nc(N3CCN(C)CC3)nc3nccnc23)c1 [Compound 6, 2-(4-methylpiperazin-1-yl)-N-(m-tolyl)pteridin-4-amine] | 41.5 µM | 26.2 µM | – | 47.1 µM | 82.1 µM | > 200 µM
4 | CCN1CCN(c2nc(Nc3ccc(F)c(F)c3)c3nccnc3n2)CC1 [Compound 16, N-(3,4-difluorophenyl)-2-(4-ethylpiperazin-1-yl)pteridin-4-amine] | > 200 µM | 122 µM | 42.7 µM | > 200 µM | > 200 µM | > 200 µM
5 | Cc1ccc(Nc2nc(N3CCN(C)CC3)nc3nccnc23)cc1Cl [Compound 20, N-(3-chloro-4-methyl-phenyl)-2-(4-methylpiperazin-1-yl)pteridin-4-amine] | 43.4 µM | 12.9 µM | 26.9 µM | 140 µM | 109 µM | > 200 µM
